pIC50: −log10 of the molar value. Activity calls are given as the source filed them. No cut-off for these calls is given here.
Key:
K562 [1] = assay: Cell cycle arrest in human K562 cells assessed as accumulation at S phase at 50 uM after 48 hrs by propidium iodide staining-based FACS -Calibur flow cytometry; assay type: functional
K562 [2] = assay: Induction of apoptosis in human K562 cells at 100 uM after 72 hrs; assay type: functional, cell-based
K562 [3] = assay: Cell cycle arrest in human K562 cells assessed as slight accumulation at G1 phase at 50 uM after 48 hrs by propidium iodide staining-based FACS -Calibur flow cytometry; assay type: functional
K562 [4] = assay: Induction of apoptosis in human K562 cells at 50 uM after 48 hrs; assay type: functional
K562 [5] = assay: Induction of apoptosis in human K562 cells at 50 uM after 72 hrs; assay type: functional, cell-based
K562 [6] = assay: Anticancer activity against human K562 cells assessed as growth inhibition; assay type: functional, cell-based
K562 [7] = assay: Cell cycle arrest in human K562 cells assessed as accumulation at G2 phase at 50 uM after 48 hrs by propidium iodide staining-based FACS -Calibur flow cytometry; assay type: functional

Row | Structure (SMILES) | Activity (K562 [1]) | Activity (K562 [4]) [%] | other results
1 | O=C1/C(=C/c2coc3ccc(F)cc3c2=O)Oc2ccccc21 | Active |  | 
2 | Cc1ccc2occ(/C=C3\Oc4ccccc4C3=O)c(=O)c2c1 | Active |  | 
3 | Cc1ccc2c(c1)O/C(=C\c1coc3ccc(Cl)cc3c1=O)C2=O | Active |  | 
4 | Cc1ccc2c(c1)O/C(=C\c1coc3ccc(F)cc3c1=O)C2=O | Active |  | 
5 | COc1ccc2c(/C=C3\Oc4cc(C)ccc4C3=O)cc(=O)oc2c1 |  | 24 | Activity (K562 [2]): Active; Activity (K562 [3]): Active; Activity (K562 [5]): Active
6 | Cc1ccc2c(c1)O/C(=C\c1coc3cc(Cl)ccc3c1=O)C2=O | Active |  | 
7 | O=C1/C(=C/c2coc3ccc(Cl)cc3c2=O)Oc2cc3ccccc3cc21 |  | 17 | 
8 | COc1ccc(-c2cc(=O)c3cc(OC)c(OC)c(OC)c3o2)cc1O |  |  | pIC50 (K562 [6]): 4.40
9 | O=C1/C(=C/c2coc3ccccc3c2=O)Oc2ccccc21 |  | 17 | 
10 | COc1ccc2c(/C=C3\Oc4cc5ccccc5cc4C3=O)cc(=O)oc2c1 |  | 24 | Activity (K562 [7]): 46%
11 | COc1ccc2c(=O)c(/C=C3\Oc4ccccc4C3=O)coc2c1 |  | 17 | 
12 | Cc1cc2occ(/C=C3\Oc4cc5ccccc5cc4C3=O)c(=O)c2cc1C |  | 17 | Activity (K562 [3]): Active
13 | COc1ccc(/C=C2\Oc3cc(C)ccc3C2=O)cc1 |  |  | Activity (K562 [2]): Active; Activity (K562 [5]): Active
14 | O=C1/C(=C/c2coc3ccccc3c2=O)Oc2cc3ccccc3cc21 |  | 17 | 
15 | COc1cccc2occ(/C=C3\Oc4cc5ccccc5cc4C3=O)c(=O)c12 |  | 17 | Activity (K562 [3]): Active
16 | COc1ccc2c(C=O)cc(=O)oc2c1 |  |  | Activity (K562 [2]): Active; Activity (K562 [5]): Active
17 | COc1ccc(/C=C2\Oc3c(cc(OC)c(OC)c3OC)C2=O)cc1O |  |  | pIC50 (K562 [6]): 4.30
18 | Cc1ccc2c(c1)O/C(=C\c1coc3ccccc3c1=O)C2=O | Active |  | 
19 | O=C1/C(=C/c2coc3ccc(Cl)cc3c2=O)Oc2ccccc21 | 63% |  | 
20 | Cc1ccc2c(c1)O/C(=C\c1coc3ccc(C)cc3c1=O)C2=O |  | 24 | Activity (K562 [3]): 72%

Source: ChEMBL document CHEMBL3132810, “Novel benzofuranchromone and coumarin derivatives: synthesis and biological activity in K562 human leukemia cells” (Medchemcomm, 2013)
